According to ChEMBL document CHEMBL1138427, “Intestinal permeability of antivirus constituents from the fruits of Eucalyptus globulus Labill. in Caco-2 Cell Model” (Bioorg Med Chem Lett, 2007):

Legend:
Type in all cases: ADME, cell-based
[1] = Drug level in Caco-2 cells assessed as total recovery rate at 50 uM after 90 mins; details: human, read-out: Drug uptake
[2] = Apparent permeability from basolateral to apical side of human Caco-2 cells at 100 uM after 90 mins
[3] = test system: Caco-2; experiment: Drug level in Caco-2 cells assessed as intracellular accumulation at 50 uM after 30 mins; details: human, caco-2, 0.5 h
[4] = Drug level in Caco-2 cells assessed as total recovery rate at 50 uM after 120 mins; details: human, read-out: Drug uptake
[5] = Drug level in Caco-2 cells assessed as total recovery rate at 50 uM after 30 mins; details: human, read-out: Drug uptake
[6] = test system: Caco-2; experiment: Ratio of permeability from basolateral to apical side over apical to basolateral side of human Caco-2 cells at 100 uM; details: caco-2, 100 µM
[7] = Drug level in Caco-2 cells assessed as total recovery rate at 50 uM after 150 mins; details: human, read-out: Drug uptake
[8] = Drug level in Caco-2 cells assessed as total recovery rate at 50 uM after 60 mins; details: human, read-out: Drug uptake
[9] = Apparent permeability from basolateral to apical side of human Caco-2 cells at 30 uM after 90 mins
[10] = Apparent permeability from apical to basolateral side of human Caco-2 cells at 30 uM after 90 mins
[11] = test system: Caco-2; experiment: Drug level in Caco-2 cells assessed as intracellular accumulation at 50 uM after 90 mins; details: human, caco-2, 1.5 h
[12] = test system: Caco-2; experiment: Drug level in Caco-2 cells assessed as intracellular accumulation at 50 uM after 120 mins; details: human, caco-2, 2 h
[13] = test system: Caco-2; experiment: Drug level in Caco-2 cells assessed as intracellular accumulation at 50 uM after 60 mins; details: human, caco-2, 1 h
[14] = test system: Caco-2; experiment: Drug level in Caco-2 cells assessed as intracellular accumulation at 50 uM after 180 mins; details: human, caco-2, 3 h
[15] = Apparent permeability from apical to basolateral side of human Caco-2 cells at 50 uM after 90 mins
[16] = Apparent permeability from apical to basolateral side of human Caco-2 cells at 100 uM after 90 mins
[17] = Apparent permeability from basolateral to apical side of human Caco-2 cells at 50 uM after 90 mins
[18] = Drug level in Caco-2 cells assessed as total recovery rate at 50 uM after 180 mins; details: human, read-out: Drug uptake
[19] = test system: Caco-2; experiment: Drug level in Caco-2 cells assessed as intracellular accumulation at 50 uM after 150 mins; details: human, caco-2, 2.5 h
[20] = test system: Caco-2; experiment: Ratio of permeability from basolateral to apical side over apical to basolateral side of human Caco-2 cells at 50 uM; details: caco-2, 50 µM
[21] = test system: Caco-2; experiment: Ratio of permeability from basolateral to apical side over apical to basolateral side of human Caco-2 cells at 30 uM; details: caco-2, 30 µM
[22] = Apparent permeability from basolateral to apical side of human Caco-2 cells at 50 uM in presence of iodoacetamide; details: Caco-2, with iodoacetamide (concentration not stated)
[23] = Apparent permeability from apical to basolateral side of human Caco-2 cells at 50 uM in presence of iodoacetamide; details: Caco-2, with iodoacetamide (concentration not stated)

recovery at 1.5 h, 50 µM [1]	Papp B→A at 1.5 h, 100 µM [2]	Drug uptake [3]	recovery at 2 h, 50 µM [4]	recovery at 0.5 h, 50 µM [5]	Ratio [6]	recovery at 2.5 h, 50 µM [7]	recovery at 1 h, 50 µM [8]	Papp B→A at 1.5 h, 30 µM [9]	Papp A→B at 1.5 h, 30 µM [10]	Drug uptake [11]	Drug uptake [12]	Drug uptake [13]	Drug uptake [14]	Papp A→B at 1.5 h, 50 µM [15]	Papp A→B at 1.5 h, 100 µM [16]	Papp B→A at 1.5 h, 50 µM [17]	recovery at 3 h, 50 µM [18]	Drug uptake [19]	Ratio [20]	SMILES	further results
60.8%	1.42 ×10⁻⁶ cm/s	36.8%	69.8%	76.4%	1.27	68.5%	63.1%	1.63 ×10⁻⁶ cm/s	1.66 ×10⁻⁶ cm/s	44.21%	50.42%	40.79%	56.67%	1.64 ×10⁻⁶ cm/s	1.8 ×10⁻⁶ cm/s	1.68 ×10⁻⁶ cm/s	75.7%	50.57%	0.98	CC(C)C[C@@H](c1c(O)c(C=O)c(O)c(C=O)c1O)[C@@]1(C)CC[C@@H]2[C@@H]1[C@H]1[C@@H](CC[C@@]2(C)O)C1(C)C [MACROCARPAL A]	Ratio [21]: 1.02
64.7%	2.14 ×10⁻⁶ cm/s	41.19%	68.7%	50%	0.77	59.5%	56.6%	1.84 ×10⁻⁶ cm/s	2.29 ×10⁻⁶ cm/s	46.98%	63.25%	50.56%	49.26%	1.71 ×10⁻⁶ cm/s	1.64 ×10⁻⁶ cm/s	2 ×10⁻⁶ cm/s	55.5%	53.21%	0.85	CC(C)C[C@H](c1c(O)c(C=O)c(O)c(C=O)c1O)[C@@]1(C)CC[C@@H]2[C@@H]1[C@H]1[C@@H](CC[C@@]2(C)O)C1(C)C [MACROCARPAL B]	Ratio [21]: 1.25
52.8%	2.71 ×10⁻⁶ cm/s	1.42%	52.7%	56.8%	1.81	54.6%	53.1%	2.66 ×10⁻⁶ cm/s	7.4 ×10⁻⁶ cm/s	0.81%	0.69%	0.83%	0.89%	5.99 ×10⁻⁶ cm/s	4.82 ×10⁻⁶ cm/s	3.32 ×10⁻⁶ cm/s	52.5%	0.81%	1.8	Cc1cc(=O)c2c(O)cc(O[C@@H]3O[C@H](COC(=O)C4=CC[C@H](C(C)(C)O)CC4)[C@@H](O)[C@H](O)[C@H]3O)cc2o1 [CYPELLOCARPA C]	Papp B→A at 50 µM [22]: 2.46 ×10⁻⁶ cm/s; Papp A→B at 50 µM [23]: 0.897 ×10⁻⁶ cm/s; Ratio [21]: 2.74
